Where two headings read alike, the source gives them in different places.
How the values were obtained:
EBOV (Ebola virus) = assay: microbe, parasite or virus in culture; format: cell-based; settings: Zaire ebolavirus; for EC50: A549, read-out: EC50 against EBOV
H5N1 virus = assay: microbe, parasite or virus in culture; format: cell-based, H5N1 influenza virus; settings: for EC50: H5N1, A549, read-out: EC50 against H5N1 virus
HIV = assay: microbe, parasite or virus in culture; format: cell-based
A549 cells [1] = assay: cells; settings: Homo sapiens, A549, read-out: % Inhibition against A549 cells
[2] = system: VSV (vesicular stomatitis virus); assay: microbe, parasite or virus in culture; format: cell-based; settings: for EC50: A549, read-out: EC50 against VSV
[3] = system: broad HIV clinical strains; settings: background; read-out: EC50 against broad HIV clinical strains; cited from earlier work
A549 cells [4] = system: A549 cells
SARS-CoV-2 = assay: microbe, parasite or virus in culture; format: cell-based; settings: Severe acute respiratory syndrome coronavirus 2, HepG2, read-out: EC50 against SARS-CoV-2
in vitro = settings: human
[5] = Human immunodeficiency virus 1, A549
[6] = CC50 against the host cell line A549

Row | Compound | EC50 (EBOV (Ebola virus)) [nM] | EC50 (H5N1 virus; Influenza A virus) [nM] | EC50 (HIV; [5]) [nM] | EC50 [2] [nM] | EC50 (SARS-CoV-2) [nM] | CC50 (in vitro; CC50 (nM)) [nM] | CC50 (in vitro; [6]) [nM] | also measured
1 | Cc1cn([C@H]2C[C@H](N=[N+]=[N-])[C@@H](CO)O2)c(=O)[nH]c1=O [AZT, zidovudine, reference compound] | 3.8 | 3.48 | 2.6 | 7.06 |  |  |  | inhibition at 0.02 µg/mL (EBOV (Ebola virus); A549, 20 ng/mL, read-out: % Inhibition against EBOV): 93.6%; % Inhibition against H5N1 virus (H5N1 virus; 20 ng/mL): 92.7%; inhibition at 0.02 µg/mL (H5N1 virus; Influenza A virus, H5N1, A549, 20 ng/mL, read-out: % Inhibition against H5N1 virus): 96.5%; inhibition at 0.02 µg/mL (A549 cells [1]): 1.1%; inhibition at 0.02 µg/mL ([2]; A549, 20 ng/mL, read-out: % Inhibition against VSV): 99.4%; EC50 [3]: 77 to 95 nM
2 | 2″-Acetyl-7-O-β-D-patentiflorin A [Compound 27bc] |  |  |  |  |  |  |  | CC50 (A549 cells [4]): 1370 nM; EC50 (HIV; read-out: EC50): 0.93 nM
3 | COc1cc2c(OC3O[C@H](C)[C@H](O)[C@H](O)[C@H]3O)c3c(c(-c4ccc5c(c4)OCO5)c2cc1OC)C(=O)OC3 (stereo partly drawn) [Compound 26e, 7-O-β-D-fucopyranosyldiphyllin] |  |  |  |  | 30.4 | > 9500 |  | inhibition at 1 µg/mL (H5N1 virus; Influenza A virus, H5N1, A549, 1000 ng/mL, read-out: % Inhibition against H5N1 virus): 48.5%; inhibition at 5 µg/mL (H5N1 virus; Influenza A virus, H5N1, A549, 5000 ng/mL, read-out: % Inhibition against H5N1 virus): 88.9%; anti-HIV activity (inhibition) (HIV; at 9496.9 nM): no inhibition
4 | COc1cc2c(OC3O[C@H](C)[C@@H](O)[C@H](OC(=O)CC#N)[C@H]3O)c3c(c(-c4ccc5c(c4)OCO5)c2cc1OC)C(=O)OC3 (stereo partly drawn) [Compound 31j, 3″-O-cyanoacetyl-7-O-β-D-patentiflorin A] | 0.84 | 0.84 | 0.91 | 0.91 | 10.3 | 6.68 | 6.68 | inhibition at 0.0125 µg/mL (EBOV (Ebola virus); A549, 12.5 ng/mL, read-out: % Inhibition against EBOV): 93.9%; inhibition at 0.05 µg/mL (EBOV (Ebola virus); A549, 50 ng/mL, read-out: % Inhibition against EBOV): 96.6%; % Inhibition against H5N1 virus (H5N1 virus; 50 ng/mL): 98.2%; inhibition at 0.0125 µg/mL (H5N1 virus; Influenza A virus, H5N1, A549, 12.5 ng/mL, read-out: % Inhibition against H5N1 virus): 97.5%; inhibition at 0.05 µg/mL (H5N1 virus; Influenza A virus, H5N1, A549, 50 ng/mL, read-out: % Inhibition against H5N1 virus): 87.6%; inhibition at 0.25 µg/mL (H5N1 virus; Influenza A virus, H5N1, A549, 250 ng/mL, read-out: % Inhibition against H5N1 virus): 97.9%; inhibition at 0.0125 µg/mL (A549 cells [1]): 77%; inhibition at 0.05 µg/mL (A549 cells [1]): 93.8%; inhibition at 0.0125 µg/mL ([2]; A549, 12.5 ng/mL, read-out: % Inhibition against VSV): 98.4%; inhibition at 0.05 µg/mL ([2]; A549, 50 ng/mL, read-out: % Inhibition against VSV): 99.9%
5 | COc1cc2c(OC3O[C@@H]4COC(C)(C)O[C@@H]4[C@H](O)[C@H]3O)c3c(c(-c4ccc5c(c4)OCO5)c2cc1OC)C(=O)OC3 (stereo partly drawn) [Compound 32c, 4″,6″-Acetonide-4-O-β-D-galactopyranosyldiphyllin] | 20.3 | 5.2 |  | 124 | 50.8 | 52.7 | 1040 | inhibition at 0.1 µg/mL (EBOV (Ebola virus); A549, 100 ng/mL, read-out: % Inhibition against EBOV): 85.5%; inhibition at 0.5 µg/mL (EBOV (Ebola virus); A549, 500 ng/mL, read-out: % Inhibition against EBOV): 88.2%; inhibition at 0.1 µg/mL (H5N1 virus; Influenza A virus, H5N1, A549, 100 ng/mL, read-out: % Inhibition against H5N1 virus): 65.1%; inhibition at 0.5 µg/mL (H5N1 virus; Influenza A virus, H5N1, A549, 500 ng/mL, read-out: % Inhibition against H5N1 virus): 88.1%; inhibition at 0.1 µg/mL (A549 cells [1]): 2.9%; inhibition at 0.5 µg/mL (A549 cells [1]): 39.7%; inhibition at 0.1 µg/mL ([2]; A549, 100 ng/mL, read-out: % Inhibition against VSV): 48.9%; inhibition at 0.5 µg/mL ([2]; A549, 500 ng/mL, read-out: % Inhibition against VSV): 88.1%
6 | COc1cc2c(OC3O[C@H](C)[C@@H](O)[C@H](O)[C@H]3O)c3c(c(-c4ccc5c(c4)OCO5)c2cc1OC)C(=O)OC3 (stereo partly shown) [Compound 26b, Patentiflorin A] | 54.8 | 4.48 | 21.1 | 42.5 | 67.2 | 347 | 386 | 
7 | COc1cc2c(OC3O[C@H](CO)[C@H]4OC(C)(C)O[C@@H]4[C@H]3O)c3c(c(-c4ccc5c(c4)OCO5)c2cc1OC)C(=O)OC3 (stereo partly drawn) [Compound 32a, 3″, 4″-Acetonide-4-O-β-D-glucopyranosyldiphyllin] | 1.2 | 0.63 |  | 18.1 | 2.95 | 52.7 | 61.6 | 

Source: patent US11638713B2, “Patentiflorin A analogs as antiviral agents” (priority 2019, dated 2023)
